Test results reported in ChEMBL document CHEMBL5038661, “Identification of a Novel 2,8-Diazaspiro[4.5]decan-1-one Derivative as a Potent and Selective Dual TYK2/JAK1 Inhibitor for the Treatment of Inflammatory Bowel Disease” (J Med Chem, 2022).

How the values were obtained:
[1] = human, microsomes
[2] = in vivo; settings: Sprague-Dawley, rat, po, 5 mg/kg
[3] = in vivo; settings: Sprague-Dawley, rat, po, 5 mg/kg; remark: listed apart in the source
[4] = in vivo; settings: Sprague-Dawley, rat, po, 5 mg/kg; remark: listed apart in the source
[5] = in vivo; settings: Sprague-Dawley, rat, po, 5 mg/kg; remark: listed apart in the source
[6] = in vivo; settings: Sprague-Dawley, rat, po, 5 mg/kg; remark: listed apart in the source

Stability [1] | Cmax at 24 h [2] [µg/mL] | CL/F at 24 h [3] [L/h/kg] | half-life at 24 h [4] [h] | AUC(0-t) [5] [µg·h/mL] | bioavailability at 24 h [6] [%] | SMILES
Unstable |  |  |  |  |  | [2H]C([2H])([2H])n1cc(Nc2ncc(C)c(N3CCC4(CCNC4=O)CC3)n2)cn1
Stable | 0.415 | 2.49 | 2.8 | 2.1 | 59.3 | Cc1cnc(Nc2cnn(C)c2)nc1N1CCC2(CCNC2=O)CC1
